The data set has as its system Pex7 homozygous hypomorphic animals (Pex7^neo/neo). Put plainly: 2 week comparison of plasmalogen precursors: plasmalogen levels in plasma and liver (LC-MS). The data set is classed as in vivo, mouse. On the procedure: Pex7 homozygous hypomorphic animals (Pex7^neo/neo) were used as a model of rhizomelic chondrodysplasia punctata (RCDP). Mice were dosed with either PPI-1011 or PPI-1040 at equimolar concentrations of 100 mg/Kg and 89.7 mg/Kg respectively. PPI-1011 was formulated in Neobee M-5, at a concentration of 12.5 mg/mL and stored at −20° C. until the first treatment day after which point the remaining formulation was stored at 4° C. Oral gavage volumes were adjusted by mouse weight to ensure a 100 mg/kg dose. PPI-1040 was stored in a sealed ampoule in solution with dichloromethane under argon gas until immediately before use. At time of treatment the ampoule was opened and dichloromethane was evaporated off under nitrogen gas for 10 minutes. Neobee M-5 was then added and the solution and vortexed to generate a 22.4 mg/mL formulation. Animals were dosed via intraperitoneal injections with doses adjusted by weight to ensure an 89.7 mg/Kg dose to each animal. Animals were sacrificed 24 hours after the ninth treatment (week 1-Monday to Friday and week 2-Monday to Thursday). Blood samples were collected in EDTA tubes and then spun down in a clinical centrifuge. Plasma samples were stored at −80° C. until thawed for analysis. Tissue samples were harvested and flash frozen in liquid nitrogen and then stored at −80° C. All tissue samples were homogenized using liquid nitrogen, generating a fine powder.
Plasma aliquots of 20 μL were analyzed, while tissues were aliquoted with anti-static polypropylene disposable milligram scoops prior to analysis. Water (200 μL) was added and samples were ice bath sonicated for 30 mins prior to the addition of 600 μL of ethyl acetate. Samples were mixed at 2000 rpm for 15 mins followed by a 10 min centrifugation at 3500 rpm. Tissue samples were diluted into an ethyl acetate (1:4) containing labeled internal standards [^13C-PlsEtn (C37^13C6H74NO7P) and ^13C-PtdEtn (C24^13C19H74NO8P)]. Water (80 μL) was added and samples were again stirred at 2000 rpm for 15 mins followed by a 2 min centrifugation at 3500 rpm. High-throughput analysis method was based on multiple reaction monitoring of one parent/fragment transition for the ion pairs, performed using liquid chromatography-mass spectrometry.

[1] abbreviates: 89.7 mg/Kg intraperitoneal, 2 weeks.
The mark [2] stands for this setting: PPI-1011 100 mg/Kg oral or PPI-1040 89.7 mg/Kg intraperitoneal, 2 weeks.

The structures appear in SMILES notation.

For the compound `CC/C=C\C/C=C\C/C=C\C/C=C\C/C=C\C/C=C\CCC(=O)OC(CO/C=C\CCCCCCCCCCCCCC)COP1(=O)NCCO1` (centres unmarked) [PPI-1040, 1-(((Z)-hexadec-1-en-1-yl)oxy)-3-((2-oxido-1,3,2-oxazaphospholidin-2-yl)oxy)propan-2-yl (4Z,7Z,10Z,13Z,16Z,19Z)-docosa-4,7,10,13,16,19-hexaenoate], under setting [1], the “bioavailability and conversion to endogenous ethanolamine plasmalogen” value was “bioavailable in the mouse”; the “total 16:0 plasmalogen pool in plasma” value is “augmented the total 16:0 plasmalogen to control levels”. Under setting [2], the “16:0 plasmalogen pool in liver” value is on record as “augmented the 16:0 plasmalogen pool in the liver to control levels” and the “target plasmalogen (16:0/22:6) levels in liver” value is listed as “to levels above control”. Where the note is “PPI-1040 89.7 mg/Kg intraperitoneal, 2 weeks (9 treatments)”, the “levels of the target plasmalogen (16:0/22:6) in the plasma” value was 2 × above control.
